Test results published in ChEMBL document CHEMBL1201862, “PubChem BioAssay data set” (2004).
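Cultured in 96-well plates, cells were exposed to test compound for 48 hours across five concentrations. GI50 is the concentration that inhibits growth by half.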 Active and inactive are the calls of the source. Cut-off read from the data, not from the text of the source: active = GI50 up to about 1.1 µM and inactive = higher.

How the values were obtained:
Experiment in all cases: NCI-60 cell line screen, 48 h
ACHN = tested on: ACHN
DU-145 = tested on: DU-145
HCT-116 = tested on: HCT-116
HOP-92 = tested on: HOP-92
HT-29 = tested on: HT-29
Hs-578T = tested on: Hs-578T
MCF7 = tested on: MCF7
Malme-3M = tested on: Malme-3M
NCI-H23 = tested on: NCI-H23
NCI-H522 = tested on: NCI-H522
OVCAR-5 = tested on: OVCAR-5
RXF 393 = tested on: RXF 393
SF-539 = tested on: SF-539
SK-OV-3 = tested on: SK-OV-3
SR = tested on: SR
UACC-257 = tested on: UACC-257
UACC-62 = tested on: UACC-62
HCC 2998 = tested on: HCC 2998
NCI-H460 = tested on: NCI-H460

Row | SMILES | GI50 (ACHN) | GI50 (DU-145) | GI50 (HCT-116) | GI50 (HOP-92) | GI50 (HT-29) | GI50 (Hs-578T) | GI50 (MCF7) | GI50 (Malme-3M) | GI50 (NCI-H23) | GI50 (NCI-H522) | GI50 (OVCAR-5) | GI50 (RXF 393) | GI50 (SF-539) | GI50 (SK-OV-3) | GI50 (SR) | GI50 (UACC-257) | GI50 (UACC-62) | GI50 (HCC 2998) | GI50 (NCI-H460)
1 | Cc1ccccc1/N=C/N(C)C | 41.8 µM (inactive) | 44.2 µM (inactive) | 33.8 µM (inactive) | 48.3 µM (inactive) | 34.3 µM (inactive) | 44.7 µM (inactive) | 31.5 µM (inactive) | 43.9 µM (inactive) | 19.2 µM (inactive) | 21.2 µM (inactive) | 72.8 µM (inactive) | 50.4 µM (inactive) | 61.8 µM (inactive) | > 100 µM (inactive) | 11.4 µM (inactive) | 22 µM (inactive) | 41.9 µM (inactive) | – | –
2 | COc1ccc2c(=O)c(-c3cc4c(cc3OC)OCO4)coc2c1 | 43.7 µM (inactive) | > 100 µM (inactive) | > 100 µM (inactive) | 32.9 µM (inactive) | > 100 µM (inactive) | > 100 µM (inactive) | 97.3 µM (inactive) | – | > 100 µM (inactive) | > 100 µM (inactive) | > 100 µM (inactive) | – | > 100 µM (inactive) | > 100 µM (inactive) | > 100 µM (inactive) | > 100 µM (inactive) | > 100 µM (inactive) | > 100 µM (inactive) | > 100 µM (inactive)
3 | Cc1cc2c(c3oc(C4(C)OC4C4OC4C)cc(=O)c13)C(=O)c1c(O)c(C3CC(C)(N(C)C)C(O)C(C)O3)cc(C3CC(N(C)C)C(O)C(C)O3)c1C2=O (configuration not stated) | 4.4e-05 µM (active) | 6.85e-05 µM (active) | 1.54e-05 µM (active) | 0.000733 µM (active) | 0.000175 µM (active) | 0.000349 µM (active) | 2.49e-05 µM (active) | – | 0.0025 µM (active) | 0.00275 µM (active) | 8.95e-05 µM (active) | 0.000104 µM (active) | 0.000531 µM (active) | 0.000215 µM (active) | 6.17e-05 µM (active) | 0.000116 µM (active) | 6.43e-05 µM (active) | 0.00014 µM (active) | 0.0025 µM (active)
4 | Cc1cc2nn(C3CCCCO3)nc2cc1C (configuration not stated) | > 100 µM (inactive) | > 100 µM (inactive) | > 100 µM (inactive) | – | > 100 µM (inactive) | > 100 µM (inactive) | > 100 µM (inactive) | > 100 µM (inactive) | > 100 µM (inactive) | > 100 µM (inactive) | > 100 µM (inactive) | > 100 µM (inactive) | > 100 µM (inactive) | > 100 µM (inactive) | > 100 µM (inactive) | > 100 µM (inactive) | > 100 µM (inactive) | > 100 µM (inactive) | > 100 µM (inactive)
5 | O=C(O)CCc1nc2c(n1Cc1ccccc1)C(=O)c1ccccc1C2=O | > 100 µM (inactive) | > 100 µM (inactive) | 36.3 µM (inactive) | 5.45 µM (inactive) | 42 µM (inactive) | 66.5 µM (inactive) | 43.8 µM (inactive) | – | 30.3 µM (inactive) | 24.3 µM (inactive) | > 100 µM (inactive) | 24.9 µM (inactive) | 28.1 µM (inactive) | 69.3 µM (inactive) | 51.4 µM (inactive) | 33.7 µM (inactive) | 38 µM (inactive) | > 100 µM (inactive) | 37.9 µM (inactive)
6 | CC1=C(C(=O)NCC(C)O)CC(C(=O)NCC(C)O)=C(C)N1 (configuration not stated) | > 100 µM (inactive) | > 100 µM (inactive) | > 100 µM (inactive) | > 100 µM (inactive) | > 100 µM (inactive) | > 100 µM (inactive) | > 100 µM (inactive) | – | > 100 µM (inactive) | > 100 µM (inactive) | > 100 µM (inactive) | > 100 µM (inactive) | > 100 µM (inactive) | > 100 µM (inactive) | > 100 µM (inactive) | > 100 µM (inactive) | > 100 µM (inactive) | > 100 µM (inactive) | > 100 µM (inactive)
7 | CCOC1Oc2ccccc2-c2nc(SC)ncc21 (configuration not stated) | > 100 µM (inactive) | 96.6 µM (inactive) | 83.2 µM (inactive) | 29.2 µM (inactive) | 52.4 µM (inactive) | 79.8 µM (inactive) | 66.1 µM (inactive) | – | > 100 µM (inactive) | 71.3 µM (inactive) | > 100 µM (inactive) | > 100 µM (inactive) | > 100 µM (inactive) | > 100 µM (inactive) | 87.1 µM (inactive) | > 100 µM (inactive) | 75.5 µM (inactive) | – | 55.6 µM (inactive)
8 | COC(=O)C1OC(SCCN)C(O)C(O)C1O (configuration not stated) | > 100 µM (inactive) | > 100 µM (inactive) | > 100 µM (inactive) | > 100 µM (inactive) | > 100 µM (inactive) | > 100 µM (inactive) | > 100 µM (inactive) | > 100 µM (inactive) | > 100 µM (inactive) | > 100 µM (inactive) | > 100 µM (inactive) | > 100 µM (inactive) | > 100 µM (inactive) | > 100 µM (inactive) | > 100 µM (inactive) | > 100 µM (inactive) | > 100 µM (inactive) | – | > 100 µM (inactive)
9 | CCC12CC(c3ccccc3)C(C(=O)N1)C(=O)N2 (configuration not stated) | > 100 µM (inactive) | > 100 µM (inactive) | > 100 µM (inactive) | > 100 µM (inactive) | > 100 µM (inactive) | > 100 µM (inactive) | > 100 µM (inactive) | > 100 µM (inactive) | > 100 µM (inactive) | > 100 µM (inactive) | > 100 µM (inactive) | > 100 µM (inactive) | > 100 µM (inactive) | > 100 µM (inactive) | > 100 µM (inactive) | > 100 µM (inactive) | > 100 µM (inactive) | – | > 100 µM (inactive)
10 | CCc1n[nH]c(=O)n1N | > 100 µM (inactive) | > 100 µM (inactive) | > 100 µM (inactive) | > 100 µM (inactive) | > 100 µM (inactive) | > 100 µM (inactive) | > 100 µM (inactive) | > 100 µM (inactive) | > 100 µM (inactive) | > 100 µM (inactive) | > 100 µM (inactive) | – | > 100 µM (inactive) | > 100 µM (inactive) | > 100 µM (inactive) | > 100 µM (inactive) | > 100 µM (inactive) | > 100 µM (inactive) | > 100 µM (inactive)
11 | SC1=NNC2(C(Cl)=N1)c1ccccc1-c1ccccc12 | – | > 10 µM (inactive) | – | > 10 µM (inactive) | – | > 10 µM (inactive) | > 10 µM (inactive) | > 10 µM (inactive) | > 10 µM (inactive) | – | – | – | > 10 µM (inactive) | > 10 µM (inactive) | > 10 µM (inactive) | > 10 µM (inactive) | > 10 µM (inactive) | > 10 µM (inactive) | > 10 µM (inactive)
12 | COc1cc(C(c2cc(OC)c(OC)c(OC)c2)N2C(=O)CCC2C(=O)O)cc(OC)c1OC (configuration not stated) | > 100 µM (inactive) | > 100 µM (inactive) | > 100 µM (inactive) | > 100 µM (inactive) | > 100 µM (inactive) | > 100 µM (inactive) | > 100 µM (inactive) | > 100 µM (inactive) | > 100 µM (inactive) | > 100 µM (inactive) | > 100 µM (inactive) | > 100 µM (inactive) | > 100 µM (inactive) | > 100 µM (inactive) | > 100 µM (inactive) | > 100 µM (inactive) | > 100 µM (inactive) | – | > 100 µM (inactive)
13 | O=[N+]([O-])c1ccc(Cl)cc1N/N=C/c1cccs1 | > 100 µM (inactive) | > 100 µM (inactive) | > 100 µM (inactive) | – | > 100 µM (inactive) | 72.4 µM (inactive) | 9.95 µM (inactive) | – | > 100 µM (inactive) | > 100 µM (inactive) | – | > 100 µM (inactive) | > 100 µM (inactive) | > 100 µM (inactive) | > 100 µM (inactive) | > 100 µM (inactive) | > 100 µM (inactive) | > 100 µM (inactive) | > 100 µM (inactive)
14 | COc1cc2cnc(-c3ccccc3)cc2cc1OC | 23.3 µM (inactive) | 37.3 µM (inactive) | 45.6 µM (inactive) | 17.5 µM (inactive) | 24.9 µM (inactive) | 12.8 µM (inactive) | 18.5 µM (inactive) | 27.9 µM (inactive) | 20.9 µM (inactive) | 20 µM (inactive) | 33.2 µM (inactive) | 37.2 µM (inactive) | 31.1 µM (inactive) | 39.7 µM (inactive) | 16.8 µM (inactive) | 22.8 µM (inactive) | 10 µM (inactive) | – | 32.2 µM (inactive)
15 | COc1ccc(Cc2cc(Cc3ccc(OC)cc3)cc(Cc3ccc(OC)cc3)c2)cc1 | > 100 µM (inactive) | > 100 µM (inactive) | > 100 µM (inactive) | > 100 µM (inactive) | > 100 µM (inactive) | > 100 µM (inactive) | > 100 µM (inactive) | 56.8 µM (inactive) | – | > 100 µM (inactive) | > 100 µM (inactive) | – | > 100 µM (inactive) | > 100 µM (inactive) | 89.5 µM (inactive) | > 100 µM (inactive) | > 100 µM (inactive) | > 100 µM (inactive) | > 100 µM (inactive)
16 | CC1(C)SC2C(NC(=O)Cc3ccccc3)C(=O)N2C1C(=O)O (configuration not stated) | > 100 µM (inactive) | > 100 µM (inactive) | > 100 µM (inactive) | > 100 µM (inactive) | > 100 µM (inactive) | > 100 µM (inactive) | > 100 µM (inactive) | > 100 µM (inactive) | > 100 µM (inactive) | > 100 µM (inactive) | > 100 µM (inactive) | > 100 µM (inactive) | > 100 µM (inactive) | > 100 µM (inactive) | > 100 µM (inactive) | > 100 µM (inactive) | > 100 µM (inactive) | – | > 100 µM (inactive)
